Measured values taken from patent US10743540B2, “3-amino-1,2,4-triazine derivatives and their use for controlling undesired plant growth” (BAYER CROPSCIENCE AKTIENGESELLSCHAFT, priority 2016, dated 2020).

Assays:
Type in all cases: in vivo
[1] = test system: ABUTH: Abutilon theophrasti; experiment: Pre-emergence herbicidal effect; details: application rate 320 g/ha, scored visually after 3 weeks, 100% = plants have died, 0% = like control plants
How it was run: (§1)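 Visual % damage vs untreated controls, scored 3 wk after treatment (100% = plants dead, 0% = like control). Pre-emergence soil-surface spray, WP or EC formulation, 600 to 800 L/ha water + 0.2% wetting agent, sandy loam, greenhouse.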

[2] = test system: ALOMY: Alopecurus myosuroides; experiment: Pre-emergence herbicidal effect; details: application rate 320 g/ha, scored visually after 3 weeks, 100% = plants have died, 0% = like control plants
How it was run: as §1

[3] = test system: ECHCG: Echinochloa crus-galli; experiment: Pre-emergence herbicidal effect; details: application rate 320 g/ha, scored visually after 3 weeks, 100% = plants have died, 0% = like control plants
How it was run: as §1

[4] = test system: LOLMU: Lolium multiflorum; experiment: Pre-emergence herbicidal effect; details: application rate 320 g/ha, scored visually after 3 weeks, 100% = plants have died, 0% = like control plants
How it was run: as §1

[5] = test system: MATIN: Matricaria inodora; experiment: Pre-emergence herbicidal effect; details: application rate 320 g/ha, scored visually after 3 weeks, 100% = plants have died, 0% = like control plants
How it was run: as §1

[6] = test system: POLCO: Polygonum convolvulus; experiment: Pre-emergence herbicidal effect; details: application rate 320 g/ha, scored visually after 3 weeks, 100% = plants have died, 0% = like control plants
How it was run: as §1

SETVI: Setaria viridis = experiment: Pre-emergence herbicidal effect; details: application rate 320 g/ha, scored visually after 3 weeks, 100% = plants have died, 0% = like control plants
How it was run: as §1

STEME: Stellaria media [7] = experiment: Pre-emergence herbicidal effect; details: application rate 320 g/ha, scored visually after 3 weeks, 100% = plants have died, 0% = like control plants
How it was run: as §1

VERPE: Veronica persica [8] = experiment: Pre-emergence herbicidal effect; details: application rate 320 g/ha, scored visually after 3 weeks, 100% = plants have died, 0% = like control plants
How it was run: as §1

[9] = test system: ALOMY: Alopecurus myosuroides; experiment: Post-emergence herbicidal effect; details: application rate 320 g/ha, treated at one-leaf stage, assessed visually after about 3 weeks, 100% = plants have died
How it was run: (§2)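 Seedlings at the one-leaf stage are treated over the foliage with an aqueous spray (600 to 800 L/ha, 0.2% wetting agent) of WP or EC preparations. They then stand in the greenhouse for about 3 weeks before a visual percent score against untreated controls.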

[10] = test system: AMARE: Amaranthus retroflexus; experiment: Post-emergence herbicidal effect; details: application rate 320 g/ha, treated at one-leaf stage, assessed visually after about 3 weeks, 100% = plants have died
How it was run: as §2

[11] = test system: ECHCG: Echinochloa crus-galli; experiment: Post-emergence herbicidal effect; details: application rate 320 g/ha, treated at one-leaf stage, assessed visually after about 3 weeks, 100% = plants have died
How it was run: as §2

STEME: Stellaria media [12] = experiment: Post-emergence herbicidal effect; details: application rate 320 g/ha, treated at one-leaf stage, assessed visually after about 3 weeks, 100% = plants have died
How it was run: as §2

VERPE: Veronica persica [13] = experiment: Post-emergence herbicidal effect; details: application rate 320 g/ha, treated at one-leaf stage, assessed visually after about 3 weeks, 100% = plants have died
How it was run: as §2

VIOTR: Viola tricolor = experiment: Post-emergence herbicidal effect; details: application rate 320 g/ha, treated at one-leaf stage, assessed visually after about 3 weeks, 100% = plants have died
How it was run: as §2

| SMILES | Herbicidal activity with respect to [%] ABUTH [1] [%] | Herbicidal activity with respect to [%] ALOMY [2] [%] | Herbicidal activity with respect to [%] ECHCG [3] [%] | Herbicidal activity with respect to [%] LOLMU [4] [%] | Herbicidal activity with respect to [%] MATIN [5] [%] | Herbicidal activity with respect to [%] POLCO [6] [%] | Herbicidal activity with respect to [%] SETVI (SETVI: Setaria viridis) [%] | Herbicidal activity with respect to [%] STEME (STEME: Stellaria media [7]) [%] | Herbicidal activity with respect to [%] VERPE (VERPE: Veronica persica [8]) [%] | Herbicidal activity with respect to [%] ALOMY [9] [%] | Herbicidal activity with respect to [%] AMARE [10] [%] | Herbicidal activity with respect to [%] ECHCG [11] [%] | Herbicidal activity with respect to [%] STEME (STEME: Stellaria media [12]) [%] | Herbicidal activity with respect to [%] VERPE (VERPE: Veronica persica [13]) [%] | Herbicidal activity with respect to [%] VIOTR (VIOTR: Viola tricolor) [%] |
| --- | --- | --- | --- | --- | --- | --- | --- | --- | --- | --- | --- | --- | --- | --- | --- |
| CC(=O)c1nnc(N[C@@H]2CCc3ccc(C)cc32)nc1N [Example 1.72] | 100 | 100 | 100 | 100 | 100 | 100 | 100 | 100 | 100 | 100 | 90 | 100 | 100 | 80 | 90 |
| Cc1ccc2c(c1)[C@H](Nc1nnc(S(C)(=O)=O)c(N)n1)CC2 [Example 1.73] | 100 | 100 | 100 | 100 | 100 | 100 | 100 | 100 | 100 | 100 | 100 | 100 | 100 | 100 | 90 |
| Cc1ccc2c(c1)[C@H](Nc1nnc([S+](C)[O-])c(N)n1)[C@@H](C)C2 (stereo partly drawn) [Example 1.44] | 100 | 100 | 100 | 100 | 100 | 100 | 100 | 100 | 100 | 100 | 100 | 90 | 90 | 100 | 90 |
| Cc1ccc2c(c1)[C@H](Nc1nnc(C#N)c(N)n1)CC2 [Example 1.70] | 100 | 100 | 100 | 100 | 100 | 100 | 100 | 100 | 100 | 100 | 90 | 100 | 100 | 100 | 90 |
| Cc1ccc2c(c1)[C@H](Nc1nnc(Cl)c(N)n1)[C@@H](C)C2 [Example 1.3, 6-Chloro-N^3-[(1R,2S)-2,6-dimethyl-2,3-dihydro-1H-inden-1-yl]-1,2,4-triazine-3,5-diamine] | 100 | 100 | 100 | 100 | 100 | 100 | 100 | 100 | 100 | 90 | 100 | 80 | 100 | 100 | 100 |
| Nc1nc(N[C@@H]2CCc3ccccc32)nnc1C(F)(F)F [Example 1.24] | 80 | 100 | 100 | 100 | 100 | 100 | 100 | 100 | 100 | 100 | 90 | 100 | 100 | 100 | 100 |
| Cc1ccc2c(c1)[C@H](Nc1nnc(C#N)c(N)n1)[C@@H](C)C2 [Example 1.25] | 100 | 100 | 100 | 100 | 100 | 100 | 100 | 100 | 100 | 100 | 90 | 100 | 100 | 100 | 90 |
| Cc1ccc2c(c1)[C@H](Nc1nnc(C(F)(F)F)c(N)n1)CCC2 [Example 1.52] | 100 | 100 | 100 | 100 | 100 | 100 | 100 | 100 | 100 | 100 | 100 | 100 | 100 | 90 | 90 |
| Cc1ccc2c(c1)[C@H](Nc1nnc(C(F)(F)F)c(N)n1)[C@@H](C)C2 [Example 1.23] | 100 | 100 | 100 | 90 | 100 | 100 | 100 | 100 | 100 | 100 | 100 | 100 | 100 | 90 | 100 |
| Cc1ccc2c(c1)[C@H](Nc1nnc(C(F)(F)F)c(N)n1)CC2 [Example 1.67] | 80 | 100 | 100 | 100 | 100 | 100 | 100 | 100 | 100 | 90 | 100 | 100 | 100 | 90 | 100 |
